Where a name gives a salt, the structure may show the parent alone.
System: male ferrets
Experiment: Emetic action in ferrets
Assay type: in vivo
Settings: 16 hours fasting, 10 mg/kg p.o., during 2 hours after administration, 8 tested ferrets per compound
Description: The tested compound of Example 5 was used as a methanesulfonic acid salt, and the following compounds disclosed in Japanese Patent Unexamined Publication No. 5-262724/1993 were used as reference compounds:
Each test compound dissolved in 10% aqueous dimethyl sulfoxide solution was administered to male ferrets, weighing 0.9 to 1.3 kg, and 16 hours fasting, and then the incidence of vomiting was observed during 2 hours after the administration.

Compound	Number of ferrets showing vomiting
CCCCOC(=O)CN1CCC(NC(=O)c2cc(Cl)c(N)cc2OC)CC1 [Example 1, n-Butyl 4-(4-amino-5-chloro-2-methoxybenzamido)-1-piperidineacetate]	0
CCCOC(=O)CN1CCC(NC(=O)c2cc(Cl)c(N)cc2OC)CC1 [Example 2, n-Propyl 4-(4-amino-5-chloro-2-methoxybenzamido)-1-piperidineacetate]	2
COc1cc(N)c(Cl)cc1C(=O)NC1CCN(CC(=O)OCC(C)C)CC1 [Example 4, Isobutyl 4-(4-amino-5-chloro-2-methoxybenzamido)-1-piperidineacetate]	1
CCCCCOC(=O)CN1CCC(NC(=O)c2cc(Cl)c(N)cc2OC)CC1 [Example 5, n-Pentyl 4-(4-amino-5-chloro-2-methoxybenzamido)-1-piperidineacetate]	0
CCCCCCOC(=O)CN1CCC(NC(=O)c2cc(Cl)c(N)cc2OC)CC1 [Example 7, n-Hexyl 4-(4-amino-5-chloro-2-methoxybenzamido)-1-piperidineacetate]	1
COc1cc(N)c(Cl)cc1C(=O)NC1CCN(CC(=O)O)CC1.Cl [Reference compound 1, 4-(4-amino-5-chloro-2-methoxybenzamido)-1-piperidineacetic acid hydrochloride, reference compound]	0
CCOC(=O)CN1CCC(NC(=O)c2cc(Cl)c(N)cc2OC)CC1.Cl [Reference compound 2, Ethyl 4-(4-amino-5-chloro-2-methoxybenzamido)-1-piperidine-acetate hydrochloride, reference compound]	8

System: not given
Experiment: not given
Settings: not given

Compound	melting point
COc1cc(N)c(Cl)cc1C(=O)NC1CCN(CC(=O)OC(C)C)CC1 (as salt: hydrochloride) [Example 3, Isopropyl 4-(4-amino-5-chloro-2-methoxybenzamido)-1-piperidineacetate]	125 to 130 °C
CCCCCCOC(=O)CN1CCC(NC(=O)c2cc(Cl)c(N)cc2OC)CC1 (as salt: hydrochloride) [Example 7, n-Hexyl 4-(4-amino-5-chloro-2-methoxybenzamido)-1-piperidineacetate]	133 to 137 °C
CCCCOC(=O)CN1CCC(NC(=O)c2cc(Cl)c(N)cc2OC)CC1 (as salt: hydrochloride) [Example 8, n-Butyl 4-(4-amino-5-chloro-2-methoxybenzamido)-1-piperidineacetate]	141 to 144 °C
CCCCOC(=O)CN1CCC(NC(=O)c2cc(Cl)c(N)cc2OC)CC1 (as salt: methanesulfonate) [Example 1, n-Butyl 4-(4-amino-5-chloro-2-methoxybenzamido)-1-piperidineacetate]	209 to 211.5 °C
CCCOC(=O)CN1CCC(NC(=O)c2cc(Cl)c(N)cc2OC)CC1 (as salt: methanesulfonate) [Example 2, n-Propyl 4-(4-amino-5-chloro-2-methoxybenzamido)-1-piperidineacetate]	209 to 210 °C
COc1cc(N)c(Cl)cc1C(=O)NC1CCN(CC(=O)OCC(C)C)CC1 (as salt: methanesulfonate) [Example 4, Isobutyl 4-(4-amino-5-chloro-2-methoxybenzamido)-1-piperidineacetate]	207 to 208 °C
CCCCCOC(=O)CN1CCC(NC(=O)c2cc(Cl)c(N)cc2OC)CC1 (as salt: methanesulfonate) [Example 5, n-Pentyl 4-(4-amino-5-chloro-2-methoxybenzamido)-1-piperidineacetate]	202.5 to 203 °C
COc1cc(N)c(Cl)cc1C(=O)NC1CCN(CC(=O)OCCC(C)C)CC1 (as salt: methanesulfonate) [Example 6, Isopentyl 4-(4-amino-5-chloro-2-methoxybenzamido)-1-piperidineacetate]	199.5 to 201 °C
CCCCOC(=O)CN1CCC(NC(=O)c2cc(Cl)c(N)cc2OC)CC1 (as salt: methanesulfonate) [Example 9, n-Butyl 4-(4-amino-5-chloro-2-methoxybenzamido)-1-piperidineacetate]	111 to 112 °C

From patent US6638951B1, “Benzamide derivatives and drugs containing the same” (Hokuriku Seiyaku Co., Ltd., priority 1999, dated 2003)
